# Results taken from article PMC2924314, “Peptides derived from the HIV-1 integrase promote HIV-1 infection and multi-integration of viral cDNA in LEDGF/p75-knockdown cells” (Virology Journal, 2010).
# Where no end group is shown, it is not given here.
# How the values were obtained:
# LEDGF/p75 = biological target: T1, LEDGF/p75 (Homo sapiens, UniProt O75475); assay: ELISA binding of peptides to LEDGF/p75; settings: apparent Kd according to ELISA using LEDGF and BSA alone as control; peptide-coated plates, room temperature, OD 490 nm, duplicate
# T1 construct: histidine tag; made in house
# T1 sequence (O75475 whole entry): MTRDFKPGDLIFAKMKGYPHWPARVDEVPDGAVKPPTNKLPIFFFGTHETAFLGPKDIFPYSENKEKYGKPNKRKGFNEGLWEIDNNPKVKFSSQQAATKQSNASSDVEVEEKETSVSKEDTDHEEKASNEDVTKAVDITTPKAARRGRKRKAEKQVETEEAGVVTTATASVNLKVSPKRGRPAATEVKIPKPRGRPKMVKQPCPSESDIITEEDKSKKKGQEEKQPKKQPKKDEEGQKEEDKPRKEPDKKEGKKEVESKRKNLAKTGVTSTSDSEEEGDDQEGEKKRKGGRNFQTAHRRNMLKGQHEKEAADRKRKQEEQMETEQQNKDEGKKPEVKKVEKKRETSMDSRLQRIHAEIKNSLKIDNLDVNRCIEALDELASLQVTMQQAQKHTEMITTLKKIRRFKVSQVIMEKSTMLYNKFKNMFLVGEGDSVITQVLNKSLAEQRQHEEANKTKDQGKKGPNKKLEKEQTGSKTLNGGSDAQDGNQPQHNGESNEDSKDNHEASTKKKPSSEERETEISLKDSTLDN
# Protocol: Expression and purification of the histidine-tagged IN and LEDGF/p75 expression vectors, were a generous gift from Prof. Engelman, Dana-Farber Cancer Institute and Division of AIDS, Harvard Medical School, Boston, MA, USA), were performed essentially as described previously.
# Protein-peptide, protein-protein and protein-DNA binding was estimated using an ELISA-based binding assay exactly as described previously. Briefly, Maxisorp plates (Nunc) were incubated at room temperature for 2 h with […] of 10 μg/ml synthetic peptide/recombinant proteins in carbonate buffer. After incubation, the solution was removed, the plates were washed three times with PBS, and 200 μl of 10% BSA (Sigma) in PBS (w/v) was added and the plates were further incubated for 2 h at room temperature. After rewashing with PBS, the tested BSA-biotinilated (Bb) peptide or protein (alone or biotinilated) was added for a further 1-h incubation at room temperature. Following three washes with PBS, the concentration of bound molecules was estimated following the addition of streptavidin-horseradish peroxidase (HRP) conjugate (Sigma), as described previously. The enzymatic activity of HRP was estimated by monitoring the product's optical density (OD) at 490 nm using an ELISA plate reader (Tecan Sunrise, Männedorf, Switzerland). Each measurement was performed in duplicate. […]
# [1] = ref [25]; cited from earlier work
# Excerpt: Following integration of the viral cDNA, several viral proteins are expressed, among them Rev. After its nuclear import the Rev protein is involved in nuclear export of unspliced and partially spliced viral RNA molecules. Thus, similar to IN, the presence the Rev protein is essential for completion of the HIV-1 life cycle. In addition to its expression from integrated viral DNA, Rev can be expressed from unintegrated DNA molecules and thus appear at an early stage in virus-infected cells. Recently, we have shown that early expressed Rev can interact with IN in ...
sequence,measurement,setting,value
WTAVQMAVFIHNFKRK [INS],Kd,LEDGF/p75,2200 ± 700 nM
same,cell permeability (result in words),[1],cell-permeable
